Holding throughout (details): mouse, in vivo
Experiment [1] deals with HBsAg.
The subject of experiment [2] is HBsAg (S-protein). Also on record: species or system C57BL/6 female mice.
For experiment [3], the system named is preS antigen. Set-up: species or system C57BL/6 female mice.
Experiment [4] has as its system HA antigen. Also on record: species or system C57BL/6 female mice.
The test system of experiment [5] is preS antigen. Also on record: species or system C57BL/6 female mice. This is another data set of the same source.
In experiment [6] the test system is HBsAg (S-protein). Also on record: species or system C57BL/6 female mice. The source holds these as a separate data set.

Where two headings read alike, the source gives them in different places.

Turning to “polyinosinic:polycytidylic acid [Poly I:C]”, the “IgG2a/IgG1 (%)” value in experiment [1] came out at 8.04%; in experiment [6], 9.1%. The “IgG2b/IgG1 (%)” value worked out at 89.05% in experiment [1] and 66.4% in experiment [6]. Further, the HBsAg antibody titer in experiment [2] is 6.3 × 10^5. In addition, the values for the preS antibody titer in experiment [3] and in experiment [5] were 2.3 × 10^5 and 6.5 × 10^5, respectively. For the same compound, in experiment [4], the HA antibody titer is on record as 8.6 × 10^5.

With `CCCCCCCCCCCCCCCC(=O)N[C@@H](CSC[C@@H](COC(=O)CCCCCCCCCCCCCCC)OC(=O)CCCCCCCCCCCCCCC)C(=O)N[C@@H](CO)C(=O)N[C@@H](CCCCN)C(=O)N[C@@H](CCCCN)C(=O)N[C@@H](CCCCN)C(=O)N[C@@H](CCCCN)C(=O)O` (racemic) [Pam3Cys-SKKKK, N-palmitoyl-S-[2,3-bis(palmitoyloxy)-(2RS)-propyl]-[R]-cystein-SKKKK], the “IgG2a/IgG1 (%)” value in experiment [1] is recorded as 17.4%; in experiment [6], 8.9%. Besides, the “IgG2b/IgG1 (%)” value in experiment [1] came out at 159.4%; in experiment [6], 153.9%. The HBsAg antibody titer in experiment [2] was 6.5 × 10^5. In addition, the figures for the preS antibody titer in experiment [3] and in experiment [5] were 1.3 × 10^5 and 6.2 × 10^5, respectively. Moreover, the HA antibody titer in experiment [4] is reported as 6.8 × 10^5.

As to FSL-1, in experiment [1], the “IgG2a/IgG1 (%)” value is recorded as 9.3% and the “IgG2b/IgG1 (%)” value is reported as 122.5%. Besides, the HBsAg antibody titer in experiment [2] is on record as 4.4 × 10^5. Moreover, the preS antibody titer in experiment [3] is given as 1.4 × 10^5.
